In patent publication US9751869B2, “LXR modulators” (BRISTOL-MYERS SQUIBB COMPANY, priority 2013, dated 2017):
pEC50: −log10 of the molar value.

Target: T1, LXRβ (Homo sapiens, UniProt P55055)
T1 construct: Co-transfection expression plasmids, comprising full-length LXRα (pCMX-h LXRα or LXRβ (pCMX-hLXRβ)); expressed in transfected cells; host or cells: CV-1 African green monkey kidney cells, transient transfection with pCMX-hLXRβ
T1 sequence (P55055 1-460): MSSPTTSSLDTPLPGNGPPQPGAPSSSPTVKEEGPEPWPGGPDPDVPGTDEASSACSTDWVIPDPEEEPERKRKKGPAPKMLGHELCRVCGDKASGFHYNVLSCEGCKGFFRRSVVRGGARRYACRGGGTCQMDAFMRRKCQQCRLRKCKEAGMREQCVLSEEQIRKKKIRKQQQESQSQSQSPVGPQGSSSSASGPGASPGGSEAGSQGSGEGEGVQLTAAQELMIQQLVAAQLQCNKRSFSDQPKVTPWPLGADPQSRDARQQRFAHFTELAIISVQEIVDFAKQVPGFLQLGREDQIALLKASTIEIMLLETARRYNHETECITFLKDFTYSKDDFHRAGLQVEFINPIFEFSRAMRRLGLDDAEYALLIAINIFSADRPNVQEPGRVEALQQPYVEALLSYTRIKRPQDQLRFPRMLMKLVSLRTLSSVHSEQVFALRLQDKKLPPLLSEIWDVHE
T1 sequence (P19793 1-462 partner): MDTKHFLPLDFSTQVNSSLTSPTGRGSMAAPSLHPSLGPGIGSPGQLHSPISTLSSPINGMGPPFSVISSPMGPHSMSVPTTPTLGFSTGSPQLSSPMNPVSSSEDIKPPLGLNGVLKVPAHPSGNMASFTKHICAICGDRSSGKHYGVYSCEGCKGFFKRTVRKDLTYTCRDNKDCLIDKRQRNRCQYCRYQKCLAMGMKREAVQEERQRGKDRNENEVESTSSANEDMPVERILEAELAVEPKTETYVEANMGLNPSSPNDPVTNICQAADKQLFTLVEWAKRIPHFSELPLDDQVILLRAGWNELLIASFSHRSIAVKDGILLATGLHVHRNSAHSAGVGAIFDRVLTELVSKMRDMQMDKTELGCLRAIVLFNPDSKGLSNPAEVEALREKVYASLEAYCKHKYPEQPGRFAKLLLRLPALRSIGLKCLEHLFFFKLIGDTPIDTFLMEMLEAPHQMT
Test: LXR/LXRE co-transfection assay (luciferase reporter) in CV-1 cells, LXRβ
Type: cell-based
Details: for pEC50: CV-1 cells transfected with pCMX-hLXRβ and LXREx1-Tk-Luciferase, 20 hours incubation, read-out: LXRbeta agonism EC50; for Emax: read-out: LXRbeta % EFFICACY
How it was run: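 CV-1 cells transiently co-transfected with full-length human LXRβ, LXRE-Tk-luciferase reporter and β-galactosidase control, then exposed to compound (≤0.5% DMSO) for 20 h at 37 °C before luminescence read. EC50 from 10-point, half-log dose curves; efficacy relative to the sulfonamide high control, means of 2–3 experiments.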

[1] = CV-1 cells, relative to maximum response of high control N-(3-((4-fluorophenyl)-(naphthalene-2-sulfonyl)amino)propyl)-2,2-dimethylpropionamide

| Structure (SMILES) | pEC50 | LXRbeta % EFFICACY [1] | Emax [1] |
| --- | --- | --- | --- |
| Cc1nc(-c2ccc3c(c2)OC(F)(F)O3)c(-c2cc(-c3cccc(S(C)(=O)=O)c3)ccc2-c2cc(C(C)O)nn2C)o1 (stereo not shown) [Example 101, 1-(5-(3-(4-(2,2-difluorobenzo[d][1,3]dioxol-5-yl)-2-methyloxazol-5-yl)-3′-(methylsulfonyl)-[1,1′-biphenyl]-4-yl)-1-methyl-1H-pyrazol-3-yl)ethanol] | 7.10 | 50% | – |
| Cc1nc(-c2ccc(OC(F)F)c(F)c2)c(-c2cc(-c3cccc(S(C)(=O)=O)c3)ccc2-c2cc(C(F)(F)CO)nn2C)o1 [Example 76, 2-(5-(3-(4-(4-(difluoromethoxy)-3-fluorophenyl)-2-methyloxazol-5-yl)-3′-(methylsulfonyl)biphenyl-4-yl)-1-methyl-1H-pyrazol-3-yl)-2,2-difluoroethanol] | 7.08 | – | 88% |
| CC(O)C(F)(F)c1cc(-c2ccc(-c3cccc(S(C)(=O)=O)c3)cc2-n2nncc2-c2ccc(OC(F)(F)F)cc2)n(C)n1 (stereo not shown) [Example 1, 1,1-difluoro-1-(1-methyl-5-(3′-(methylsulfonyl)-3-(5-(4-(trifluoromethoxy)phenyl)-1H-1,2,3-triazol-1-yl)biphenyl-4-yl)-1H-pyrazol-3-yl)propan-2-ol] | 6.11 | – | 68% |
| Cn1nc(C(C)(F)F)cc1-c1ccc(-c2cccc(S(C)(=O)=O)c2)cc1-n1nncc1-c1ccc(OC(F)(F)F)cc1 [Example 18, 1-{4-[3-(1,1-difluoroethyl)-1-methyl-1H-pyrazol-5-yl]-3′-(methylsulfonyl)biphenyl-3-yl}-5-{4-[(trifluoromethyl)oxy]phenyl}-1H-1,2,3-triazole] | 7.24 | – | 87% |
| Cn1nc(C(F)(F)F)cc1-c1ccc(-c2cc(Cl)c(CO)c(S(C)(=O)=O)c2)cc1-n1nncc1-c1ccc(OC(F)(F)F)cc1 [Example 13] | 7.35 | – | 83% |
| Cc1nc(-c2ccc(OC(F)(F)F)cc2)c(-c2cc(-c3cccc(S(C)(=O)=O)c3)ccc2-n2ccc(C(C)(C)O)n2)o1 [Example 316, 2-(1-(3-(2-methyl-4-(4-(trifluoromethoxy)phenyl)oxazol-5-yl)-3′-(methylsulfonyl)biphenyl-4-yl)-1H-pyrazol-3-yl)propan-2-ol] | 6.53 | – | 24% |
| CCC(F)(F)c1cc(-c2ccc(-c3cccc(S(C)(=O)=O)c3)cc2-n2nncc2-c2ccc(OC(F)(F)F)cc2)n(C)n1 [Example 9, 1-(4-(3-(1,1-difluoropropyl)-1-methyl-1H-pyrazol-5-yl)-3′-(methylsulfonyl)biphenyl-3-yl)-5-(4-(trifluoromethoxy)phenyl)-1H-1,2,3-triazole] | 7.15 | – | 82% |

The next compounds have a higher pEC50 than those just listed; values first:

| pEC50 | LXRbeta % EFFICACY [1] | Emax [1] | Structure (SMILES) |
| --- | --- | --- | --- |
| 7.60 | – | 45% | Cn1nc(C(F)(F)C(N)=O)cc1-c1ccc(-c2cc(F)c(CO)c(S(C)(=O)=O)c2)cc1-c1oc(C2CC2)nc1-c1ccc2c(c1)OC(F)(F)O2 [Example 46, 2-(5-(3-(2-cyclopropyl-4-(2,2-difluorobenzo[d][1,3]dioxol-5-yl)oxazol-5-yl)-3′-fluoro-4′-(hydroxymethyl)-5′-(methylsulfonyl)biphenyl-4-yl)-1-methyl-1H-pyrazol-3-yl)-2,2-difluoroacetamide] |
| 7.92 | – | 66% | CC(=O)c1cc(-c2ccc(-c3cc(F)c(CO)c(S(C)(=O)=O)c3)cc2-c2oc(C)nc2-c2ccc3c(c2)OC(F)(F)O3)n(C)n1 [Example 133, 1-(5-(3-(4-(2,2-difluorobenzo[d][1,3]dioxol-5-yl)-2-methyloxazol-5-yl)-3′-fluoro-4′-(hydroxymethyl)-5′-(methylsulfonyl)-[1,1′-biphenyl]-4-yl)-1-methyl-1H-pyrazol-3-yl)ethanone] |
| 7.48 | – | 75% | Cc1nc(-c2ccc(Cl)cc2)c(-c2cc(-c3cc(F)c(CO)c(S(C)(=O)=O)c3)ccc2-n2ccc(C(F)(F)F)n2)o1 [Example 336, (3′-(4-(4-chlorophenyl)-2-methyloxazol-5-yl)-3-fluoro-5-(methylsulfonyl)-4′-(3-(trifluoromethyl)-1H-pyrazol-1-yl)biphenyl-4-yl)methanol] |
| 7.43 | – | 69% | Cc1nc(-c2ccc(OC(F)F)cc2Cl)c(-c2cc(-c3cccc(S(C)(=O)=O)c3)ccc2-n2cc(Cl)c(C(F)(F)F)n2)o1 [Example 431] |
